Results: patent publication US20140045764A1, “NEUROPROTECTIVE PEPTIDES” (Neurim Pharmaceuticals (1991) Ltd., priority 2012, published 2014)
Marks after values point to notes of the source that are not given here.

Key:
[1] = Pharmacokinetics after subcutaneous administration in rats (plasma, LC-MS/MS); type: in vivo, Sprague Dawley rats; details: subcutaneous 1 mg/kg; for Cmax: male, Sprague-Dawley, sc, rat plasma, read-out: apparent Cmax
Procedure: The pharmacokinetics of the peptides was evaluated following SC peptide administration in male Sprague Dawley rats. Peptide solution was prepared using phosphate buffer saline (pH 7.4) as vehicle and was administered through subcutaneously at the dose of 1 mg/kg with dosing volume of 2 mL/kg.
Blood samples were collected at 0 (pre-dose) and 0.17, 0.5, 1, 2, 4, 8 and 24 hours following administration. At each time point, approximately 0.25 mL of blood was withdrawn through jugular vein of the cannulated rats and transferred to a pre-labeled microfuge tube containing 200 mM K2EDTA (20 μL per mL of blood). Following sampling equal volume of heparinized saline was flushed in to catheter. Blood samples were centrifuged at 5000 g for 5 minutes at 4±2° C. All the plasma samples were stored below −70° C. until analysis. A fit-for-purpose LC-MS/MS method was used for the quantification of the peptides in plasma samples. The lower limit of quantification (LLOQ) was 22.34 ng/mL.

MPTP-treated mice = test: MPTP mouse Parkinson's model, striatal dopamine and metabolites by HPLC; type: in vivo, C57BL mice; details: for DA / DOPAC / HVA: striatal level, peptide 1 mg/kg intranasal, divided by total protein and normalized to vehicle treated mice
Procedure: C57BL mice (all male, age 8-12 weeks, obtained from Harlan Laboratories Israel) were administered with 18 mg/kg MPTP (Sigma-Aldrich) at a dosage volume of 100 μl/mouse by intraperitoneal (IP) injection twice daily, 3 hrs apart on days 1 and 2. On study day 0 and for 8 consecutive days, mice were administered intranasally with PBS (vehicle) or one of the peptides at 1 mg/kg in 12 μl/mouse. All peptides used in in vivo studies were synthesized by LifeTein and were modified with N terminal acetylation and C terminal amidation. For intranasal instillation, each mouse was mildly anesthetized (2.5% Isoflurane) then restrained and held with the neck parallel to the table while a total volume of 12 μl was administered into the nostril. Six (6) μl was administered to the left nostril as two 3 μl drops, followed by a 15 sec hold, and 6 μl was administered to the right nostril as two 3 μl drops, followed by a 15 seconds hold. On day 8 the animals were euthanized by cervical dislocation. Immediately after euthanasia, the brains were removed and the striata dissected (left and right striatum were pooled), weighed and frozen in dry ice. The striata samples were homogenized in a solution containing 0.1 M perchloric acid and 10 ng/ml 3,4 dihydroxybenzylamine (DHBA) by 5 seconds sonication at 80 W. The supernatants of each tissue extract were injected directly to HPLC pump (Jasco PU-2080Plus) onto a reverse phase column (GL-Science, Inertsil ODS-2 5 um 4.6×150 mm at room temperature) coupled to an electrochemical detector Coulochem II ESA with a conditioning cell model 5021 and analytical cell model 5011. The working potential was set to 0.35V on the conditioning cell and 0.1V and −0.35V on the analytical cell. The mobile phase was 0.05M monobasic sodium phosphate, with 80 mg/L EDTA, 125 mg/L heptane sulfonic acid, 55 ml of methanol and 50 ml of acetonitrile pH=2.7. The flow rate was 1.5 ml/min. The dopamine, DOPAC and HVA values were normalized to the lysate protein concentration (BCA kit, Pierce).
In this model, repeated itraperitoneal injections of MPTP (18 mg/kg at 3-h intervals on two consecutive days) result in dopaminergic neuronal death in the substantia nigra and dopamine depletion of the striatum. The peptides (or vehicle) were applied twice daily by intranasal instillation at 1 mg/kg starting 1 day prior to exposure to MPTP and continued until the end of the study. 7 days after the injection of MPTP mice were sacrificed and striatal levels of dopamine (DA), […] (DOPAC) and homovanillic acid (HVA) were evaluated by HPLC.
Specifically Table 2 illustrates the effect of human V6 and V 10-derived peptides (1 mg/kg, intranasal administration) on the striatal level of dopamine and metabolites in MPTP-treated mice. Mice were treated according to the protocol described in the Materials and Methods. Striatal levels of DA, DOPAC and HVA were determined by HPLC, divided by the total protein content value and normalized to the levels obtained in vehicle treated mice. Groups 1 and 3 treated with 1:1 mix of normal designated and retro-inverso analog (D amino acids at reversed sequence). Group 6 was treated with 1:1 mix of 10B2.5—6 and 10B2.5—9 peptides.

[2] = test system: N2A mouse neuroblastoma cells; test: Protection of N2A cells from 6-OHDA (viability, alamar blue); type: cell-based; details: 30 or 40 μM 6-OHDA 22 hrs, peptide 10 fM and 1 μM
Procedure: All peptides were synthesized by LifeTein (South Pleinfield, N.J., USA) at >95% purity. N2A mouse neuroblastoma and SK-N-SH human neuroblastoma (ATCC) were maintained in Dulbecco's modified Eagle's medium supplemented with 10% fetal calf serum, L-Glut and 1% Penicillin-Streptomycin (Beit Haemek, Israel). Cells were maintained in an incubator at 37° C. with 5% CO2. SK-N-SH cells were treated with 3 μM RA (Sigma-Aldrich) for 5 days prior to each experiment to allow the cells to differentiate towards neuronal cells. […] The intensity of the water soluble dye is proportional to the number of metabolic active cells. […] The viability assay was followed by caspase 3 assay (EnzChek Caspase3 Assay kit, Invitrogen, Carlsbad, Calif., USA) according to the manufacture's instructions
All methods are the same as in Example 1 above. Peptides and 6-hydroxydopamine were purchased from Sigma-Aldrich (St. Lewis, USA).
These peptides were screened for their protective effect on 6-hydroxydopamine (6-OHDA) treated N2A cells at 1 pM concentration. 6-OHDA is a dopamine analogue that is commonly used in model systems to mimic Parkinson's disease in vitro and in vivo, 6-OHDA induces apoptosis through release of reactive oxygen species (ROS) and by a possible direct effect on the mitochondrial respiratory chain. […] The protective effect of some of the peptides was tested in a wide dose range. […] The peptide panel was also tested for their effect on Aβ (25-35) induced toxicity in SK-N-SH human neuroblastoma cells at pM concentration. The profile of peptides effective against the Aβ stress was strikingly different than the 6-OHDA-effective peptides (FIGS. 7A-B).
The peptides shown on Table 3 were tested for their effect in protecting N2A from 6-OHDA (FIG. 8). […] Such modifications include C-terminus truncation (26-1, 26-2 and 26-3), replacement of the N-terminal glutamic acid residue with glutamine and histidine at position 7 with alanine (26-8 and 26-9, respectively).

[3] = test system: Aβ(1-42) microinjection rat model; test: Aβ(1-42) microinjection rat model, IH/ICV peptide, novel object recognition; type: in vivo, Sprague Dawley rats; details: 21 days after Aβ injection, p<0.01 versus vehicle
Procedure: Aβ(1-42) (Sigma-Aldrich, USA), was dissolved in filtered PBS at the concentration of 6 μg/μl, and the solution kept at 37° C. for 2 days before use. One microliter of the solution was injected by means of a microsyringe into the right hippocampus under sodium pentobarbital (55 mg/kg i.p.) anesthesia at the stereotaxic coordinates: AP=−3.6, ML=2.0, from Bregma and DV=3.0 from the skull. Control rats were injected with 1 μl of PBS. In the IH/ICV study, 1 μl of the peptide or PBS was also injected into the right hippocampus at the same stereotaxic coordinates.
For ICV injection, a microinjection cannula was planted into the lateral cerebral ventricle according to the following stereotaxic coordinates: AP=−1, ML=1.6, DV=3.8. […]
The training apparatus was a black Plexiglas box (50×50×40 cm) placed in a sound-attenuating cabinet which was located in a brightly lit and isolated room. […] During the training trial, the rat was placed in the box and allowed to explore two identical objects for 10 min and the total time spent exploring both objects was recorded. […] The rat was placed in the box for 3 min and the time spent exploring each object and the total time spent exploring both objects were recorded. The discrimination index used to assess memory was calculated as the difference in time exploring the novel and familiar object, expressed as the ratio of the total time spent exploring both objects. […]

[4] = test system: Met tyrosine kinase receptor; details: literature reference [24]; cited from earlier work

Molecule | DA (MPTP-treated mice) | DOPAC (MPTP-treated mice) | HVA (MPTP-treated mice) | activity in protecting N2A from 6-OHDA [2] | levels of at least one of the 2 DA metabolites, DOPAC and HVA (MPTP-treated mice; 1 mg/kg intranasal) | also measured
CC(=O)N1CCC[C@@H]1C(=O)N[C@H](Cc1ccc(O)cc1)C(=O)N[C@H](Cc1c[nH]cn1)C(=O)N[C@H](CO)C(=O)N[C@@H](C(=O)N[C@H](Cc1ccc(O)cc1)C(=O)NCC(=O)N[C@H](CCC(=O)O)C(N)=O)[C@H](C)O (relative stereo) [26-RI, *P*Y*H*S*T*Y*G*E] |  |  |  |  |  | Cmax [1]: 1230 ng/mL; improvement of Cmax compared to P26 ([1]; rat): 10 fold
Ac-EGYTSHYP-NH2 (N-terminus and C-terminus assumed) [V10A1_N+4, EGYTSHYP] |  |  |  |  |  | Cmax [1]: 130 ng/mL
EDSH (Human V6B1_C4 peptide) [hV6B1_C4] | 20.7 | 41.7 | 16.6 |  |  | 
EGYTS (Human 26-3 peptide) |  |  |  | maintaining at least partial activity |  | 
EGYTSAYP (Human 26-9 peptide) |  |  |  | maintaining at least partial activity |  | 
EGYTSH (Human 26-2 peptide) |  |  |  | maintaining at least partial activity |  | 
EGYTSHY (Human 26-1 peptide) |  |  |  | maintaining at least partial activity |  | 
FGVTAVTV (Human V10B1_8 peptide (also referred to as P34)) | 46.6 * | 75.9 ** | 83.3 ** |  | increased significantly | discrimination index, novel object recognition ([3]; 10 ng/rat IH/ICV): increased significantly; discrimination index, novel object recognition ([3]; 100 ng/rat IH/ICV): increased significantly; effect on striatal DA level compared to the vehicle control (MPTP-treated mice; 1 mg/kg intranasal): significantly positive effect
NRWHE (A pentapeptide derived from the human V6) |  |  |  |  |  | inhibiting hepatocyte growth factor (HGF) signal transduction through Met tyrosine kinase receptor [4]: capable of inhibiting
NVNRSL (Human V10B2.5_6 peptide) |  |  |  |  | increased significantly | 
NVNRSLSGD (Human V10B2.5_9 peptide) |  |  |  |  | increased significantly | 
PVTSAKTGSFG [V10A/B_S] | 26.6 | 27.2 | 13.7 |  |  | 
QGYTSHYP (Human 26-8 peptide) |  |  |  | maintaining at least partial activity |  | 
TTLLEG (Human V10A1_N6 peptide) | 17.7 | 24.3 | −0.7 |  |  | 
hV10A2: human CD44V10-derived peptide, SEQ ID NO: 12; sequence not printed (TKESRTFIPVTSAKT; Human V10A2 peptide) | 24.7 | 54.8 * | 73.4 ** |  | increased significantly | 
hV10B3: human CD44V10-derived peptide, SEQ ID NO: 15; sequence not printed (SLSGDQDTFHPSG; Human V10B3 peptide) | 18.1 | 22.5 | 44.2 * |  | increased significantly | 
